Assay results from patent US20110200708A1, “A COMPOSITION FOR ACTIVATING AND/OR STABILIZING MICRO-ORGANISMS” (priority 2008, published 2011).
Values joined by “and” are separate entries in the source; they are usually repeats but may differ in a detail not shown here. Equal entries are not always repeated. Where two headings read alike, the source gives them in different places.

Experiments:
strain 6 = assay: Acidification activity of strain 6 bulk starter cultures at different iron and manganese concentrations; assay type: cell-based, mesophilic lactic acid bacteria
Method: The strains were fermented in sterilized production medium in a standard fermentation vessel. The fermentation was carried out by maintaining the pH between 6-6.5 with ammonia at a temperature of about 30° C. The culture was harvested after ammonia consumption was stabilized. The culture was cooled to a temperature of below 10° C. and centrifuged. A concentration factor (harvested broth over pellet volume) of 15-20 was obtained. The obtained concentrate was used for further testing, e.g. with the cell concentrates a series of bulk starter culture fermentations was performed. […] The bulk starter culture was prepared by fermenting the milk during 6 hours at 30° C. under pH-stat conditions. Ammonia was used to maintain the pH at 6.0-6.2. Samples (1.5 ml) of the cultures were taken after 5 and 6 hours fermentation. The samples were tested to establish the acidification activity of the culture under standard conditions. […] Several different final iron and manganese concentrations were used in this experiment. The bulk starter culture was prepared as described above with the proviso that the UHT milk was inoculated with 0.6 wt % cell concentrate.

[1] = tested on: mesophilic lactic acid bacteria Strain 4; settings: 31° C.
Method: (§1) One litre of 2%-fat UHT milk was added to a previously sterilized 1200 ml fermentor vessel. Suspensions of yeast extract formulated with either iron pyrophosphate or iron sulfate were sterilized separately and added to the vessel to supply the milk with 0.02 wt % yeast extract and iron at a final amount of 2.4, 4.2 or 6 ppm.
(§2) Vessels were heated to 31° C., inoculated with freshly thawed culture concentrates and incubated for 7 hours under pH-control (pH between 5.9 and 6.1). After the incubation, the obtained starter culture was immediately cooled to a temperature below 8° C.
(§3) The obtained starter culture was tested for acidification activity by inoculating cold 2%-fat UHT-pasteurised milk with 3.0% (v/v) of the culture, incubating the inoculated milk for 2.5 hours at 31° C., and then measuring the change in pH of the milk versus non-inoculated milk. The experiment was done for five different mesophilic lactic acid bacteria strains.

[2] = tested on: mesophilic lactic acid bacteria Strain 1; settings: 31° C., in the absence of iron 1.18
Method: as §1, §2, §3

[3] = tested on: mesophilic lactic acid bacteria Strain 3; settings: 31° C.
Method: as §1, §2, §3

[4] = tested on: mesophilic lactic acid bacteria Strain 5; settings: 31° C.
Method: as §1, §2, §3

[5] = tested on: mesophilic lactic acid bacteria Strain 2; settings: 31° C., in the absence of iron 1.44
Method: as §1, §2, §3

[6] = tested on: mesophilic lactic acid bacteria Strain 8; assay: Acidification activity of bulk starter cultures with yeast extract, iron, manganese and/or molybdate, Strain 8; assay type: cell-based; settings: YE 0.02 wt %, Fe, Mn, Mo 8 ppm each
Method: (§4) The strains were fermented in sterilized production medium in a standard fermentation vessel. The fermentation was carried out by maintaining the pH between 6-6.5 with ammonia at a temperature of about 30° C. The culture was harvested after ammonia consumption was stabilized. The culture was cooled to a temperature of below 10° C. and centrifuged. A concentration factor (harvested broth over pellet volume) of 15-20 was obtained. The obtained concentrate was used for further testing, e.g. with the cell concentrates a series of bulk starter culture fermentations was performed. […] The bulk starter culture was prepared by fermenting the milk during 6 hours at 30° C. under pH-stat conditions. Ammonia was used to maintain the pH at 6.0-6.2. Samples (1.5 ml) of the cultures were taken after 5 and 6 hours fermentation. The samples were tested to establish the acidification activity of the culture under standard conditions. […] The strains were fermented as described in Example 6. The bulk starter cultures were prepared as described in Example 6 with the proviso that the UHT milk was inoculated with 0.6 wt % cell concentrate. Acid production was measured as described in Example 6 with the proviso that 6 gram sample was taken from the cultures after 5 and 6 hours and added to 200 g UHT milk. The experiment was done with two different strains.

[7] = tested on: mesophilic lactic acid bacteria Strain 9; assay: Acidification activity of bulk starter cultures with yeast extract, iron, manganese and/or molybdate, Strain 9; assay type: cell-based; settings: YE 0.02 wt %, Fe, Mn, Mo 8 ppm each
Method: as §4

[8] = Strain 4, 2.4 ppm iron + 0.02 wt % yeast extract
[9] = Strain 4, 4.2 ppm iron + 0.02 wt % yeast extract
[10] = Strain 4, 6.0 ppm iron + 0.02 wt % yeast extract
[11] = Strain 3, 2.4 ppm iron + 0.02 wt % yeast extract
[12] = Strain 3, 4.2 ppm iron + 0.02 wt % yeast extract
[13] = Strain 3, 6.0 ppm iron + 0.02 wt % yeast extract
[14] = Strain 5, 2.4 ppm iron + 0.02 wt % yeast extract
[15] = Strain 5, 4.2 ppm iron + 0.02 wt % yeast extract
[16] = Strain 5, 6.0 ppm iron + 0.02 wt % yeast extract

| Structure (SMILES) | Acidification activity of bulk starter culture (strain 6; strain 6, Fe 0 ppm, Mn 2.4 ppm, 7 hours, 0/0 ppm 1.61) | Acidification activity [1, 8] | Acidification activity [1, 9] | Acidification activity [1, 10] | Acidification activity ([2]; Strain 1, 2.4 ppm iron + 0.02 wt % yeast extract) | Acidification activity ([2]; Strain 1, 6.0 ppm iron + 0.02 wt % yeast extract) | Acidification activity [3, 11] | Acidification activity [3, 12] | Acidification activity [3, 13] | Acidification activity [4, 14] | Acidification activity [4, 15] | Acidification activity [4, 16] | Acidification activity ([5]; Strain 2, 2.4 ppm iron + 0.02 wt % yeast extract) | Acidification activity ([5]; Strain 2, 6.0 ppm iron + 0.02 wt % yeast extract) | Acidification activity of bulk starter culture (strain 6) | Acidification activity of bulk starter culture ([6]; Strain 8, 5 hours, no addition 0.64) | Acidification activity of bulk starter culture ([6]; Strain 8, 6 hours, no addition 1.08) | Acidification activity of bulk starter culture ([7]; Strain 9, 5 hours, no addition 0.33) | Acidification activity of bulk starter culture ([7]; Strain 9, 6 hours, no addition 0.43) |
| --- | --- | --- | --- | --- | --- | --- | --- | --- | --- | --- | --- | --- | --- | --- | --- | --- | --- | --- | --- |
| O=S(=O)([O-])[O-].[Mn+2] [M, manganese sulphate] | 1.65 ΔpH/2.5 h |  |  |  |  |  |  |  |  |  |  |  |  |  |  |  |  |  |  |
| O=S(=O)([O-])[O-].[Fe+2] [Iron sulphate, iron sulphate] |  | 1.54 ΔpH/2.5 h | 1.56 ΔpH/2.5 h | 1.57 ΔpH/2.5 h | 1.47 ΔpH/2.5 h | 1.53 ΔpH/2.5 h | 1.49 ΔpH/2.5 h | 1.49 ΔpH/2.5 h | 1.51 ΔpH/2.5 h | 1.29 ΔpH/2.5 h | 1.33 ΔpH/2.5 h | 1.35 ΔpH/2.5 h | 1.77 ΔpH/2.5 h | 1.71 ΔpH/2.5 h | 1.67 ΔpH/2.5 h and 1.66 ΔpH/2.5 h |  |  |  |  |
| O=P([O-])([O-])OP(=O)([O-])[O-].O=P([O-])([O-])OP(=O)([O-])[O-].O=P([O-])([O-])OP(=O)([O-])[O-].[Fe+3].[Fe+3].[Fe+3].[Fe+3] [Iron pyrophosphate, iron pyrophosphate] |  | 1.48 ΔpH/2.5 h | 1.56 ΔpH/2.5 h | 1.58 ΔpH/2.5 h |  |  | 1.45 ΔpH/2.5 h | 1.48 ΔpH/2.5 h | 1.50 ΔpH/2.5 h | 1.25 ΔpH/2.5 h | 1.32 ΔpH/2.5 h | 1.33 ΔpH/2.5 h |  |  |  |  |  |  |  |
| [Na+].[Na+].[O]=[Mo](=[O])([O-])[O-] [Mo, sodium molybdate] |  |  |  |  |  |  |  |  |  |  |  |  |  |  |  | 0.73 ΔpH/2.5 h | 1.04 ΔpH/2.5 h | 0.55 ΔpH/2.5 h | 0.79 ΔpH/2.5 h |
